Assays:
[1] = tested on: human Hepatitis Delta virus; test: Hepatitis Delta virus replication in primary human hepatocytes, PCR (Example 13); assay type: cell-based
Description: Primary human hepatocytes were established in a 96 well microtiter plate. Squalamine was then added at concentrations of 20 or 60 μg/ml followed by an inoculum of Hep D virus, and then in culture for 3 hours, after which fresh medium was introduced, and the cells maintained in culture for 7 days. Viral growth was measured by PCR using viral specific primers and normalized to the total RNA extracted from each corresponding well.

Dengue virus = test: Dengue infection of HMEC-1 cells, immunohistochemical detection of viral E protein (Example 11); assay type: cell-based, human
Description: Cells were grown on uncoated glass cover-slips following a published protocol (Zamudio-Meza, Castillo-Alvarez et al. 2009). The cells were pretreated with squalamine for 2 hr at 37° C. prior to viral exposure; virus (multiplicity of infection of 3) remained in contact with cells for 30 minutes at 4° C., followed by 90 minutes at 37° C. The medium was then replaced with fresh medium lacking virus and squalamine and maintained at 37° C. for 48 hrs. Cells were fixed and processed for immunohistochemical detection of viral E protein. Viral E protein expression was used to monitor the early stages of infection.

Yellow Fever = assay type: in vivo, Syrian hamsters; details: squalamine 15 mg/kg/d s.c. qd, -24 h to 6 dpi
RAW264.7 cell line = details: squalamine 80 μM, 30 minutes; cited from earlier work
human Hepatitis B virus = test: Hepatitis B virus replication in primary human hepatocytes, PCR (Example 12); assay type: cell-based
Description: Primary human hepatocytes were established in a 96 well microtiter plate. Squalamine was then added at concentrations of 2, 6 or 20 μg/ml followed by an inoculum of Hep B virus, and then in culture for 16 hours, after which fresh medium was introduced, and the cells maintained in culture for 14 days. In a second experiment, squalamine at 6 or 20 μg/ml was added to the cells at 24 hours post inoculation for a 16 hour exposure, followed by removal of medium, replacement with fresh medium, and continued culture for 14 days. Viral growth was measured by PCR using viral specific primers and normalized to the total RNA extracted from each corresponding well.

HUVECs = test: Thrombin induced stress fiber formation in endothelial cells; assay type: cell-based, human; details: aminosterol 20 μM, thrombin 20 ng/ml, 2 hours
Description: The basic methods have been published (Williams, […] et al. 2001). HUVECs were grown on fibronectin-covered coverslips in EGM medium. […] Following a rinse, the cells were exposed to a 1:400 dilution of an FITC-goat antimurine antibody and 250 ng/ml TRITC phalloidin. The stained coverslips were visualized by fluorescence microscopy.

[2] = tested on: murine cytomegalovirus (MCMV); assay type: in vivo, Balb/c mice
[3] = 20 μg/ml, added during initial stages of infection
[4] = mouse, in vivo, ip, 10 mg/kg/day

Q: What does the source list for `CC(C)[C@@H](CC[C@@H](C)[C@H]1CC[C@H]2[C@@H]3[C@H](O)C[C@H]4C[C@@H](NCCCNCCCCN)CC[C@]4(C)[C@H]3CC[C@]12C)OS(=O)(=O)O` [Squalamine, squalamine]?
A: Inhibition of viral production [1, 3]: 90%; Cytotoxicity in vitro ([1]; 60 μg/ml, primary human hepatocytes): cytotoxic; Inhibition of viral infection (Dengue virus; 46 ug/ml): about 80%; Inhibition of viral infection (Dengue virus; 60 μg/ml and higher): ~100%; Inhibition of viral infection (Dengue virus; 62 ug/ml): 100%; Cell viability (morphology, phase contrast) (Dengue virus; HMEC-1 cells at the effective squalamine concentrations): not diminished; Inhibition of viral infection (Dengue virus; about 40 μg/ml): 80%; Inhibition of viral infection (Dengue virus; concentrations above 40 ug/ml): almost completely inhibited; Survival (Yellow Fever): 70%; Localization of Lact-C2 probe (RAW264.7 cell line): did not alter the localization; Localization of R-pre probe (RAW264.7 cell line): displaced from its residence on the plasma membrane; Inhibition of viral production (human Hepatitis B virus; 2 μg/ml, added at the outset of infection): 14%; Inhibition of viral production (human Hepatitis B virus; 6 μg/ml, added at 24 hours): 30%; Inhibition of viral production (human Hepatitis B virus; 6 μg/ml, added at the onset of infection): 54%; Inhibition of viral production (human Hepatitis B virus; 20 μg/ml, added at 24 hours): 64%; Inhibition of viral production (human Hepatitis B virus; [3]): 83%; Disruption of thrombin induced stress fiber formation (HUVECs): Yes; Disruption of thrombin induced stress fiber formation (HUVECs; listed as squalamine): disrupt thrombin induced stress fiber formation; Viral titers in lung versus control ([2]; 10 mg/kg/day i.p.): trend toward reduction; Viral titers versus control cohort ([2]; day 7, spleen and liver, 10 mg/kg/day s.c. and i.p. groups): significantly lower; Viral titers, difference between groups ([2]; days 3 to 7, lungs and salivary glands): no significant differences; Effect on viral growth [2, 4]: little effect; Reduction in viral growth [2, 4]: greater than 10 fold; Virus in liver and spleen [2, 4]: undetectable; Virus in liver and spleen versus controls ([2]; mouse, in vivo, sc, 10 mg/kg/day): significantly reduced

Source: patent US20200000825A1, “METHODS AND COMPOSITIONS FOR TREATING AND PREVENTING VIRAL INFECTIONS” (ENTERIN LABORATORIES, INC., priority 2009, published 2020)
